We go through 9 compounds from publication PMC9959817, “Flow-Based Fmoc-SPPS Preparation and SAR Study of Cathelicidin-PY Reveals Selective Antimicrobial Activity” (Molecules, 2023).

Holding throughout (experiment): microbe, parasite or virus in culture
In one experiment the test system is P. aeruginosa (SVB-B9). Type of experiment: cell-based, Pseudomonas aeruginosa. Particulars: for Minimum Inhibitory Concentration: SVB-B9. The source says:
(§1) As we were primarily interested in the clinical potential of cathelicidin-PY (1) and its analogues 2–9, cation-adjusted Mueller-Hinton broth (CAMHB) was implemented during our in vitro antimicrobial screening towards bacteria. However, non-cation adjusted Mueller Hinton broth (MHB) was also implemented to evaluate the cation sensitivity of these AMPs. In each medium, compounds 1–9 were subjected to minimum inhibitory concentration (MIC) assays with E. coli (ATCC 25922), P. aeruginosa (SVB-B9), and S. aureus (ATCC 29213), in accordance with CLSI microbroth dilution protocols (Table 1). It is noteworthy, however, that the initial report of cathelicidin-PY’s isolation documented MIC assays performed in Luria Broth (LB). Furthermore, antifungal activity towards C. albicans was investigated.
(§2) Staphylococcus aureus ATCC 29213, Pseudomonas aeruginosa (SVB-B9) (type strain), and Escherichia coli ATCC 25,922 were grown in either non-cation-adjusted or cation-adjusted Mueller Hinton (MH) broth at 37 °C with shaking (200 rpm). MIC assays were performed in technical triplicate in accordance with the CLSI-recommended protocol. All assays were performed independently on three occasions, with the reported MIC defined as the lowest concentration for which agreement was observed consistently for all replicates.

For another experiment, the system named is C. albicans (SC5314). Type of experiment: cell-based, Candida albicans. Particulars: read-out: Minimum Inhibitory Concentration.
Excerpt: as §1
Antimicrobial susceptibility of Candida albicans SC5314 (type strain) was assessed by broth microdilution in RPMI 1640 media in accordance with the CLSI recommended protocols. All assays were performed independently on three occasions, with the reported MIC defined as the lowest concentration for which agreement was observed consistently for all replicates.

In another experiment the test system is S. aureus (ATCC 29213). Type of experiment: cell-based, Staphylococcus aureus. The conditions noted are these: read-out: Minimum Inhibitory Concentration.
Excerpt: as §1, §2

≈ marks a conversion by molar mass, not a printed value. Where two headings read alike, the source gives them in different places. Where a SMILES comes first, the peptide text is derived from it. Bridges are numbered along the chain shown (N, C = ends). Where no end group is shown, it is not given here. [ ]: non-standard residue; d: D form. Dab = NCC[C@H](N)C(=O)O

With `C[C@@H]1[C@H](O)[C@@H](C)/C=C/C=C/C=C/C=C/C=C/C=C/C=C/[C@H](O[C@@H]2O[C@H](C)[C@@H](O)[C@H](N)[C@@H]2O)C[C@@H]2O[C@](O)(C[C@@H](O)C[C@@H](O)[C@H](O)CC[C@@H](O)C[C@@H](O)CC(=O)O[C@H]1C)C[C@H](O)[C@H]2C(=O)O` [A, Amphotericin B, reference compound], the MIC in the experiment on P. aeruginosa (SVB-B9) (Pseudomonas aeruginosa, P. aeruginosa SVB-B9 type strain, cation-adjusted Mueller-Hinton broth (CAMHB), 37 °C, technical triplicate, three independent occasions, read-out: Minimum Inhibitory Concentration) is 2 µM (≈ 1.85 µg/mL); with C. albicans (SC5314) (Candida albicans, C. albicans SC5314 type strain, RPMI 1640 media, three independent occasions), 1 µM (≈ 0.924 µg/mL); in the experiment on S. aureus (ATCC 29213) (S. aureus ATCC 29213, non-cation-adjusted Mueller-Hinton broth (MHB), 37 °C, technical triplicate, three independent occasions), more than 64 µM; in the experiment on S. aureus (ATCC 29213) (Staphylococcus aureus, ATCC29213, S. aureus ATCC 29213, cation-adjusted Mueller-Hinton broth (CAMHB), 37 °C, technical triplicate, three independent occasions), more than 64 µM.
`CC[C@H](C)[C@@H]1NC(=O)[C@H](Cc2c[nH]cn2)NC(=O)[C@H](CO)NC(=O)[C@H]([C@@H](C)O)NC(=O)[C@H]([C@@H](C)CC)NC(=O)[C@H](C(C)C)NC(=O)[C@H]([C@@H](C)O)NC(=O)[C@H](CCCNC(=N)N)NC(=O)[C@H](CC(C)C)NC(=O)[C@H](CCCCN)NC(=O)[C@H](CCC(=O)O)NC(=O)[C@H](CCCCN)NC(=O)[C@H](CC(C)C)NC(=O)[C@H](CCCCN)NC(=O)[C@@H]2CSSC[C@H](NC(=O)[C@H](CCCCN)NC(=O)[C@H](CCCNC(=N)N)NC(=O)CNC(=O)[C@H](CCC(N)=O)NC(=O)[C@@H]3CCCN3C(=O)[C@H](CCCNC(=N)N)NC(=O)[C@H](CC(C)C)NC(=O)[C@H](C(C)C)NC(=O)[C@H](CCCCN)NC(=O)[C@H](CC(=O)O)NC1=O)C(=O)N[C@@H](CC(N)=O)C(=O)N[C@@H](Cc1ccccc1)C(=O)N[C@@H](CC(C)C)C(=O)N2` [Compound 3] (cyclo(CKLKEKLRTVITSHIDKVLRPQGRKCNFL); disulfide 1-26): the MIC with C. albicans (SC5314) (SC5314) and with S. aureus (ATCC 29213) (ATCC 29213) was more than 64 µM each time.
As to `CC[C@H](C)[C@H](NC(=O)[C@H](Cc1c[nH]cn1)NC(=O)[C@H](CO)NC(=O)[C@@H](NC(=O)[C@@H](NC(=O)[C@@H](NC(=O)[C@@H](NC(=O)[C@H](CCCNC(=N)N)NC(=O)[C@H](CC(C)C)NC(=O)[C@H](CCCCN)NC(=O)[C@H](CCC(=O)O)NC(=O)[C@H](CCCCN)NC(=O)[C@H](CC(C)C)NC(=O)[C@H](CCCCN)NC(=O)[C@@H]1CCCCNC(=O)CC[C@H](NC(=O)[C@H](CCCCN)NC(=O)[C@@H](N)CCCNC(=N)N)C(=O)N[C@@H](CC(N)=O)C(=O)N[C@@H](Cc2ccccc2)C(=O)N[C@@H](CC(C)C)C(=O)N1)[C@@H](C)O)C(C)C)[C@@H](C)CC)[C@@H](C)O)C(=O)N[C@@H](CC(=O)O)C(=O)N[C@@H](CCCCN)C(=O)N[C@H](C(=O)N[C@@H](CC(C)C)C(=O)N[C@@H](CCCNC(=N)N)C(=O)N1CCC[C@H]1C(=O)N[C@@H](CCC(N)=O)C(=O)NCC(=O)O)C(C)C` [Compound 4] (H-RKENFLKKLKEKLRTVITSHIDKVLRPQG-OH; lactam 3-7), the MIC in the experiment on C. albicans (SC5314) (SC5314) and with S. aureus (ATCC 29213) (ATCC 29213) was more than 64 µM each time.
For `CC[C@H](C)[C@H](NC(=O)[C@H](Cc1c[nH]cn1)NC(=O)[C@H](CO)NC(=O)[C@@H](NC(=O)[C@@H](NC(=O)[C@@H](NC(=O)[C@@H](NC(=O)[C@H](CCCNC(=N)N)NC(=O)[C@H](CC(C)C)NC(=O)[C@H](CCCCN)NC(=O)[C@H](CCC(=O)O)NC(=O)[C@H](CCCCN)NC(=O)[C@H](CC(C)C)NC(=O)[C@H](CCCCN)NC(=O)[C@@H]1CCCCNC(=O)C[C@H](NC(=O)[C@H](CCCCN)NC(=O)[C@@H](N)CCCNC(=N)N)C(=O)N[C@@H](CC(N)=O)C(=O)N[C@@H](Cc2ccccc2)C(=O)N[C@@H](CC(C)C)C(=O)N1)[C@@H](C)O)C(C)C)[C@@H](C)CC)[C@@H](C)O)C(=O)N[C@@H](CC(=O)O)C(=O)N[C@@H](CCCCN)C(=O)N[C@H](C(=O)N[C@@H](CC(C)C)C(=O)N[C@@H](CCCNC(=N)N)C(=O)N1CCC[C@H]1C(=O)N[C@@H](CCC(N)=O)C(=O)NCC(=O)O)C(C)C` [Compound 5] (H-RKDNFLKKLKEKLRTVITSHIDKVLRPQG-OH; lactam 3-7), the MIC with C. albicans (SC5314) (SC5314) and in the experiment with S. aureus (ATCC 29213) (ATCC 29213) was more than 64 µM in each case.
For the compound `CC[C@H](C)[C@H](NC(=O)[C@H](Cc1c[nH]cn1)NC(=O)[C@H](CO)NC(=O)[C@@H](NC(=O)[C@@H](NC(=O)[C@@H](NC(=O)[C@@H](NC(=O)[C@H](CCCNC(=N)N)NC(=O)[C@H](CC(C)C)NC(=O)[C@H](CCCCN)NC(=O)[C@H](CCC(=O)O)NC(=O)[C@H](CCCCN)NC(=O)[C@H](CC(C)C)NC(=O)[C@H](CCCCN)NC(=O)[C@@H]1CCC(=O)NCCCC[C@H](NC(=O)[C@H](CCCCN)NC(=O)[C@@H](N)CCCNC(=N)N)C(=O)N[C@@H](CC(N)=O)C(=O)N[C@@H](Cc2ccccc2)C(=O)N[C@@H](CC(C)C)C(=O)N1)[C@@H](C)O)C(C)C)[C@@H](C)CC)[C@@H](C)O)C(=O)N[C@@H](CC(=O)O)C(=O)N[C@@H](CCCCN)C(=O)N[C@H](C(=O)N[C@@H](CC(C)C)C(=O)N[C@@H](CCCNC(=N)N)C(=O)N1CCC[C@H]1C(=O)N[C@@H](CCC(N)=O)C(=O)NCC(=O)O)C(C)C` [Compound 6] (H-RKKNFLEKLKEKLRTVITSHIDKVLRPQG-OH; lactam 3-7), the “Minimum Inhibitory Concentration” value in the experiment with P. aeruginosa (SVB-B9) fell in the range of 4 to 8 µM. Further, the MIC with C. albicans (SC5314) (SC5314) and with S. aureus (ATCC 29213) (ATCC 29213) was more than 64 µM in each case.
As for `CC[C@H](C)[C@H](NC(=O)[C@H](Cc1c[nH]cn1)NC(=O)[C@H](CO)NC(=O)[C@@H](NC(=O)[C@@H](NC(=O)[C@@H](NC(=O)[C@@H](NC(=O)[C@H](CCCNC(=N)N)NC(=O)[C@H](CC(C)C)NC(=O)[C@H](CCCCN)NC(=O)[C@H](CCC(=O)O)NC(=O)[C@H](CCCCN)NC(=O)[C@H](CC(C)C)NC(=O)[C@H](CCCCN)NC(=O)[C@@H]1CC(=O)NCCCC[C@H](NC(=O)[C@H](CCCCN)NC(=O)[C@@H](N)CCCNC(=N)N)C(=O)N[C@@H](CC(N)=O)C(=O)N[C@@H](Cc2ccccc2)C(=O)N[C@@H](CC(C)C)C(=O)N1)[C@@H](C)O)C(C)C)[C@@H](C)CC)[C@@H](C)O)C(=O)N[C@@H](CC(=O)O)C(=O)N[C@@H](CCCCN)C(=O)N[C@H](C(=O)N[C@@H](CC(C)C)C(=O)N[C@@H](CCCNC(=N)N)C(=O)N1CCC[C@H]1C(=O)N[C@@H](CCC(N)=O)C(=O)NCC(=O)O)C(C)C` [Compound 7] (H-RKKNFLDKLKEKLRTVITSHIDKVLRPQG-OH; lactam 3-7), the MIC with C. albicans (SC5314) (SC5314) and in the experiment with S. aureus (ATCC 29213) (ATCC 29213) was more than 64 µM throughout.
Regarding `CC[C@H](C)[C@H](NC(=O)[C@H](Cc1c[nH]cn1)NC(=O)[C@H](CO)NC(=O)[C@@H](NC(=O)[C@@H](NC(=O)[C@@H](NC(=O)[C@@H](NC(=O)[C@H](CCCNC(=N)N)NC(=O)[C@H](CC(C)C)NC(=O)[C@H](CCCCN)NC(=O)[C@H](CCC(=O)O)NC(=O)[C@H](CCCCN)NC(=O)[C@H](CC(C)C)NC(=O)[C@H](CCCCN)NC(=O)[C@@H]1CCNC(=O)C[C@H](NC(=O)[C@H](CCCCN)NC(=O)[C@@H](N)CCCNC(=N)N)C(=O)N[C@@H](CC(N)=O)C(=O)N[C@@H](Cc2ccccc2)C(=O)N[C@@H](CC(C)C)C(=O)N1)[C@@H](C)O)C(C)C)[C@@H](C)CC)[C@@H](C)O)C(=O)N[C@@H](CC(=O)O)C(=O)N[C@@H](CCCCN)C(=O)N[C@H](C(=O)N[C@@H](CC(C)C)C(=O)N[C@@H](CCCNC(=N)N)C(=O)N1CCC[C@H]1C(=O)N[C@@H](CCC(N)=O)C(=O)NCC(=O)O)C(C)C` [Compound 8] (H-RKDNFL[Dab]KLKEKLRTVITSHIDKVLRPQG-OH; lactam 3-7), the “Minimum Inhibitory Concentration” value with P. aeruginosa (SVB-B9) lay within 4 to 8 µM. Also, the MIC in the experiment with C. albicans (SC5314) (SC5314) and in the experiment on S. aureus (ATCC 29213) (ATCC 29213) was more than 64 µM each time.
Consider `CC[C@H](C)[C@H](NC(=O)[C@H](Cc1c[nH]cn1)NC(=O)[C@H](CO)NC(=O)[C@@H](NC(=O)[C@@H](NC(=O)[C@@H](NC(=O)[C@@H](NC(=O)[C@H](CCCNC(=N)N)NC(=O)[C@H](CC(C)C)NC(=O)[C@H](CCCCN)NC(=O)[C@H](CCC(=O)O)NC(=O)[C@H](CCCCN)NC(=O)[C@H](CC(C)C)NC(=O)[C@H](CCCCN)NC(=O)[C@@H]1CCNC(=O)CC[C@H](NC(=O)[C@H](CCCCN)NC(=O)[C@@H](N)CCCNC(=N)N)C(=O)N[C@@H](CC(N)=O)C(=O)N[C@@H](Cc2ccccc2)C(=O)N[C@@H](CC(C)C)C(=O)N1)[C@@H](C)O)C(C)C)[C@@H](C)CC)[C@@H](C)O)C(=O)N[C@@H](CC(=O)O)C(=O)N[C@@H](CCCCN)C(=O)N[C@H](C(=O)N[C@@H](CC(C)C)C(=O)N[C@@H](CCCNC(=N)N)C(=O)N1CCC[C@H]1C(=O)N[C@@H](CCC(N)=O)C(=O)NCC(=O)O)C(C)C` [Compound 9] (H-RKENFL[Dab]KLKEKLRTVITSHIDKVLRPQG-OH; lactam 3-7), for which the MIC with C. albicans (SC5314) (SC5314) and in the experiment with S. aureus (ATCC 29213) (ATCC 29213) was more than 64 µM in each case.
For the compound “RKANFLAKLKEKLRTVITSHIDKVLRPQG [Compound 2]”, the “Minimum Inhibitory Concentration” value with P. aeruginosa (SVB-B9) lay within 4 to 8 µM. The MIC in the experiment on C. albicans (SC5314) (SC5314) and in the experiment with S. aureus (ATCC 29213) (ATCC 29213) was more than 64 µM each time.
